The structures appear in SMILES notation.

As a reminder, the ED50 is the midpoint of the dose-response relation.

For the experiment, the system named is Gastric Acid Output. Briefly: Gastric antisecretory activity in the Gastric Fistula Rat (Table 2 title: Two-Hour Pylorus Ligated Rat). In kind it is in vivo, Long Evans rats. Particulars: Rattus norvegicus, sc; Route of Administration s.c.; numbers in parentheses are the 95% confidence limits; read-out: ED50. On the procedure:
Male Long Evans rats weighing about 240-260 grams at the time of cannula implantation are used. The design and implantation of the stainless steel cannula into the anterior wall of the fore-stomach are carried out essentially as described by Pare et al. [Laboratory Animal Science, 27, 244 (1977)]. The fistula components are designed and the operative procedure is carried out exactly as described in the above reference. Post operatively the animals are individually housed in solid bottom cages with sawdust and are allowed food and water ad libitum throughout the entire recovery period. Animals are not used for test purposes for at least 15 days after the operative procedure.
The animals are fasted but allowed water ad libitum for 20 hours before the testing procedure is to begin. Immediately prior to collection, the cannula is opened and the stomach washed gently with 30-40 mL of warm saline or distilled water to remove any residual contents. The catheter is then screwed into the cannula in place of the plugging screw and the rat is placed in a clear plastic rectangular cage measuring 40 cm long, 15 cm wide and 13 cm high. The bottom of the cage has a slit approximately 1.5 cm wide and 25 cm long running down the center to accommodate the catheter which hangs through it. In this way the rat is not restricted and can move freely about the cage during collection periods. The remainder of the assay is carried out as described by Ridley et al. [Research Comm. Chem. Path. Pharm., 17, 365 (1977)].
Gastric secretions collected during the first hour after washing the stomach are discarded as they may be contaminated. For oral evaluation, the catheter is then removed from the cannula and replaced with the plugging screw. Water (2 mL/kg) is administered orally via gastric intubation and the animal is returned to the cage for 45 minutes. After this time the plugging screw is removed and replaced with a catheter to which a small plastic vial has been attached to collect the gastric secretions. A two hour sample is collected (this represents the control secretion), the catheter removed and replaced with the plugging screw. The test drug is now administered orally in a volume of 2 mL/kg via gastric intubation. Forty-five minutes later the plugging screw is again removed, replaced with the catheter attached to a small plastic vial and another 2 hour sample is collected. The secretions in the second sample are compared to those of the control sample in order to determine the effects of the test drug.
When test compounds are to be evaluated parenterally, the animal is injected ip or sc with the test compound vehicle in a volume of 2 mL/kg immediately after discarding the initial 60 minute collection. A two hour sample is collected (control secretion) and the animals are injected either ip or sc with the test compound in a volume of 2 mL/kg. An additional two hour sample is collected and its secretions are compared to those of the control period to determing drug effects.
The samples are centrifuged in a graduated tube for volume determination. Titratable acidity is measured by titrating a one mL sample to pH 7.0 with 0.02N NaOH, using an Autoburet and an electrometric pH meter (Radiometer). Titratable acid output is calculated in microequivalents by multiplying the volume in milliliters by the acid concentration in milliequivalents per liter.
Results are expressed as percent inhibition relative to control readings. Dose response curves are constructed and ED values are calculated by regression analyses. At least three rats are used at each dosage level and a minimum of three dosage levels are utilized for determination of a dose response curve.

Consider `CN(C)Cc1ccc(CSCCNC2=NS(=O)(=O)N=C2NC2CC2)o1` [Example 97, 3-Cyclopropylamino-4-{2-[(5-dimethylaminomethyl-2-furyl)-methylthio]ethylamino}-1,2,5-thiadiazole 1,1-dioxide], for which the ED50 is approximately 3 µmol/kg.
Next, `CN(C)Cc1ccc(CSCCNC2=NS(=O)(=O)N=C2NCC2CC2)o1` [Example 98, 3-Cyclopropylmethylamino-4-{2-[ (5-dimethylaminomethyl-2-furyl)methylthio]ethylamino}-1,2,5-thiadiazole 1,1-dioxide]: 0.52 µmol/kg; `CN(C)Cc1ccc(CSCCNC2=NS(=O)(=O)N=C2N2CCOCC2)o1` [Example 99, 3-{2-[(5-Dimethylaminomethyl-2-furyl)methylthio]ethylamino}-4-morpholino-1,2,5-thiadiazole 1,1-dioxide]: 32 µmol/kg; `COCCNC1=NS(=O)(=O)N=C1NCCSCc1ccc(CN(C)C)o1` [Example 100, 3-{2-[(5-Dimethylaminomethyl-2-furyl)methylthio]ethylamino}-4-(2-methoxyethylamino)-1,2,5-thiadiazole 1,1-dioxide]: 1.6 µmol/kg.
Consider `CN(C)Cc1ccc(CSCCNC2=NS(=O)(=O)N=C2N2CCCC2)o1` [Example 101, 3-{2-[(5-Dimethylaminomethyl-2-furyl)methylthio]ethylamino}-4-pyrrolidino-1,2,5-thiadiazole 1,1-dioxide], for which the ED50 amounted to 68 µmol/kg.
With `CCCCNC1=NS(=O)(=O)N=C1NCCSCc1ccc(CN(C)C)o1` [Example 103, 3-Butylamino-4-(2-[(5-dimethylaminomethyl-2-furyl)methylthio]-ethylamino}-1,2,5-thiadiazole 1,1-dioxide], the ED50 was determined as 0.54 µmol/kg.
The result for `CN(C)Cc1ccc(CSCCNC2=NS(=O)(=O)N=C2NCc2ccccn2)o1` [Example 104, 3-{2-[(5-Dimethylaminomethyl-2-furyl)methylthio]ethylamino}-4-[(2-pyridyl)methylamino]-1,2,5-thiadiazole 1,1-dioxide] reads 0.61 µmol/kg; that for `CN(C)Cc1ccc(CSCCNC2=NS(=O)(=O)N=C2NO)o1` [Example 105, 3-{2-[(5-Dimethylaminomethyl-2-furyl)methylthio]ethy1arnino}-4-hydroxylamino-1,2,5-thiadiazole 1,1-dioxide], 1.65 µmol/kg.
As for `CONC1=NS(=O)(=O)N=C1NCCSCc1ccc(CN(C)C)o1` [Example 107, 3-{2-[(5-Dimethylaminomethyl-2-furyl)methylthio]ethylamino}-4-methoxyamino-1,2,5-thiadiazole 1,1-dioxide], the ED50 was found to be 23 µmol/kg.
The result for `CCCNC1=NS(=O)(=O)N=C1NCCSCc1ccc(CN(C)C)s1` [Example 108, 3-{2-[(5-Dimethylaminomethyl-2-thienyl)methylthio]ethylamino}-4-propylamino-1,2,5-thiadiazole 1,1-dioxide] reads 2.2 µmol/kg.
With `CN(C)Cc1ccc(CSCCNc2n[s+]([O-])nc2N)s1` (centres unmarked) [Example 109, 3-Amino-4-{2-[(5-dimethylaminomethyl-2-thienyl)methylthio]-ethylamino}-1,2,5-thiadiazole 1-oxide], the ED50 was 1.4 µmol/kg.
Next, `CN(C)Cc1ccc(CSCCNC2=NS(=O)(=O)N=C2NCc2cccnc2)s1` [Example 110, 3-{2-[(5-Dimethylaminomethyl-2-thienyl)methylthio]ethylamino}-4-[(3-pyridyl)methylamino]-1,2,5-thiadiazole 1,1-dioxide]: 0.05 µmol/kg.
The result for `CN(C)Cc1ccc(CSCCNC2=NS(=O)(=O)N=C2N)s1` [Example 111, 3-Amino-4-{2-[(5-dimethylaminomethyl-2-thienyl)methylthio]-ethylamino}-1,2,5-thiadiazole 1,1-dioxide] reads 0.64 µmol/kg; that for `CN(C)Cc1ccc(CSCCNC2=NS(=O)(=O)N=C2NCc2ccccc2)s1` [Example 112, 3-Benzylamino-4-(2-[(5-dimethylaminomethyl-2-thienyl)-methylthio]ethylamino}-1,2,5-thiadiazole 1,1-dioxide], 1.2 µmol/kg.
In the case of `CNC1=NS(=O)(=O)N=C1NCCCOc1cccc(CN(C)C)c1` [Example 113, 3-[3-(3-Dimethylaminomethylphenoxy)propylamino]-4-methylamino-1,2,5-thiadiazole 1,1-dioxide], the ED50 was 0.07 µmol/kg.
`CNC1=NS(=O)(=O)N=C1NCCSCc1cnc(CN(C)C)s1` [Example 114, 3-{2-[(2-Dimethylaminomethylthiazol-5-yl)methylthio]-ethylamino}-4-methylamino-1,2,5-thiadiazole 1,1-dioxide]: the ED50 was approximately 15 µmol/kg.
As for `CNc1n[s+]([O-])nc1NCCSCc1csc(NC(=N)N)n1` (centres unmarked) [Example 115, 3-{2-[(2-Guanidinothiazol-4-yl)methylthio]ethylamino}-4-methylamino-1,2,5-thiadiazole 1-oxide], the ED50 was determined as 0.57 µmol/kg.
With `NC(N)=Nc1nc(CSCCNc2n[s+]([O-])nc2O)cs1` (centres unmarked) [Example 116, 3-{2-[(2-Guanidinothiazol-4-yl)methylthylthio]ethylamino}-4-hydroxy-1,2,5-thiadiazole 1-oxide], the ED50 is more than 10 µmol/kg.
Take `CN=C(N)Nc1nc(CSCCNc2n[s+]([O-])nc2N)cs1` (centres unmarked) [Example 117, 3-Amino-4-{2-[(2-{2-methylguanidino}thiazol-4-yl)methylthio]-ethylamino}-1,2,5-thiadiazole 1-oxide]: the ED50 is approximately 0.5 µmol/kg.
For `CNc1nc(CSCCNc2n[s+]([O-])nc2N)cs1` (centres unmarked) [Example 119], the median effective dose (ED50) is more than 10 µmol/kg.
On to `CN=C(NC)Nc1nc(CSCCNc2n[s+]([O-])nc2N)cs1` (centres unmarked) [Example 120, 3-Amino-4-{2-[(2-{2,3-dimethylguanidino}thiazol-4-yl)-methylthio]ethylamino}-1,2,5-thiadiazole I-oxide], for which the ED50 is approximately 5 µmol/kg.
Take `N=C(N)Nc1nc(CSCCNc2n[s+]([O-])nc2NCCSCc2csc(NC(=N)N)n2)cs1` (centres unmarked) [Example 121, 3,4-Bis-{2-[(2-guanidinothiazol-4-yl)methylthio]ethylamino}-1,2,5-thiadiazole 1-oxide]: the ED50 worked out at 0.19 µmol/kg.
`CNC1=NS(=O)(=O)N=C1NCCSCc1csc(N)n1` [Example 122, 3-{2-[(2-Aminothiazol-4-yl)methylthio]ethylamino}-4-methylamino-1,2,5-thiadiazole 1,1-dioxide]: the ED50 was approximately 10 µmol/kg.
Consider `CN(C)Cc1ncc(CSCCNc2n[s+]([O-])nc2N)s1` (centres unmarked) [Example 123, 3-Amino-4-{2-[(2-dimethylaminomethylthiazol-5-yl)methylthio]-ethylamino}-1,2,5-thiadiazole 1-oxide], for which the ED50 is more than 10 µmol/kg.
Turning to `Nc1nc(CSCCNc2n[s+]([O-])nc2N)cs1` (centres unmarked) [Example 124, 3-Amino-4-{2-[(2-aminothiazol-4-yl)methylthio]ethylamino}-1,2,5-thiadiazole 1-oxide], the ED50 is more than 10 µmol/kg.
The result for `CN=C(NC)Nc1nc(CSCCNC2=NS(=O)(=O)N=C2NC)cs1` [Example 125, 3-Methylamino-4-{2-[(2-{2,3-dimethylguanidino)thiazol-4-yl)-methylthio]ethylamino}-1,2,5-thiadiazole 1,1-dioxide] reads approximately 10 µmol/kg; that for `CNC1=NS(=O)(=O)N=C1NCCSCc1csc(N(C)C)n1` [Example 127, 3-{2-[(2-Dimethylaminothiazol-4-yl)methylthio]ethylamino}-4-methylamino-1,2,5-thiadiazole 1,1-dioxide], more than 10 µmol/kg.
Next, `CNC1=NS(=O)(=O)N=C1NCCSCc1csc(N=C2NCCN2)n1` [Example 128, 3-{2-[(2-{2-Imidazolidinyl}iminothiazol-4-yl)methylthio]-ethylamino}-4-methy1amino-1,2,5-thiadiazole 1,1-dioxide]: approximately 10 µmol/kg; `CN(C)Cc1ccc(CSCCNC2=NS(=O)(=O)N=C2NCc2ccccn2)s1` [Example 129, 3-{2-[(5-Dimethylaminomethyl-2-thienyl)methylthio]ethylamino}-4-[(2-pyridyl)methylamino]-1,2,5-thiadiazole 1,1-dioxide]: approximately 1 µmol/kg.

For the origin of these results see patent EP0099121A2, “Pharmaceutical compositions” (Bristol-Myers Company, priority 1982, dated 1984).
